# Assay results taken from patent US20230069886A1, “AROMATIC SULPHONAMIDES DERIVATIVES THAT INHIBITS PDI A3, THEIR SYNTHESIS AND USE” (Uniwersytet Jagiellonski, priority 2020, published 2023).
# Assays:
# Type in all cases: cell-based, human
# HL-60 = assay: MTT antiproliferative assay, 72 h, HL-60; conditions: 72 hours exposition
# Experimental: Anticancer activity of selected compounds of invention, PDI A3-inhibitors has been also tested in vitro in antiproliferative assay in normoxic and hypoxic conditions as well in estrogen-stimulated cancer cells. In the experiment, cells were seeded on 96-well plates (Sarstedt, Germany) in appropriate culture medium at a density of 10^5 cells/mL 24 h before adding the tested compounds. Cells were treated with each compound in four concentrations in the range 0.1-100 μg/mL. […] After 72 h of compound treatment at 37° C., 5% CO2 humid atmosphere and in wo different oxygen level conditions: 21%—normal and <1%—hypoxia. In some experiments the MDA-MB-231 and MCF-7 cells were seeded with or without 200 nM estradiol and after 24 h the tested compounds were added. A previously described sulforhodamine B antiproliferative assay was used with minor modifications (Skehan P et al., 1990). Briefly, cells were fixed with 50 μL/well of 50% (w/v) trichloroacetic acid (Avantor Performance Materials, Gliwice, Poland). After 1 h incubation, plates were washed several times with tap water and 50 μL of 0.4% (w/v) solution of sulforhodamine B (Sigma-Aldrich, Germany) in 1% (v/v) acetic acid (Avantor Performance Materials, Gliwice, Poland) was added to each well. After 30 min incubation at room temperature, unbound dye was washed out with 1% (v/v) acetic acid, whereas bound dye was solubilized with 10 mM unbuffered TRIS (Avantor Performance Materials, Gliwice, Poland) solution. The entire procedure was performed using a BioTek EL-406 washing station (BioTek Instruments, USA). After additional 30 min, absorbance was read using a Biotek Hybrid H4 reader (BioTek Instruments, USA) at 540 nm wavelength. MTT assay was used alternatively for HL-60 cell line and in the experiment in which estrogens are added (specified in the table legend). Absorbance was measured using a Biotek Hybrid H4 reader at 570 nm wavelength for MTT assay.
# Compounds at each concentration were tested in triplicate in a single experiment and each experiment was repeated at least three times independently. Results are presented as mean IC50±SD.
# [1] = system: MDA-MB-231 cell transmigration across IL-1β-stimulated hLMVECs; assay: Transendothelial migration of MDA-MB-231 cells across hLMVEC monolayer; conditions: IL-1β 10 ng/mL (6 hours)-stimulated hLMVECs, 24 h co-culture, FIG. 6
# Experimental: To assess whether compounds of invention, PDI A3-inhibitors are also effective as inhibitors of cancer cell transmigration through endothelium the transmigration assay with MDA-MB-231/lung microvascular endothelium was used as described previously (Stojak et al., 2018). Cell migration was assayed in 24-well, 6.5-mm internal-diameter Transwell plates (8.0 μm pore size; BD Pharmingen). Human lung microvascular endothelial cells (hLMVECs) were seeded into 24-well plates (seeding density 5×10^4 cells/insert) on the upper side of the filter and left to grow to confluence. After confluent monolayer formation, hLMVECs were pre-treated with 10 ng/mL IL-1β for 6 h. Prior to use in transmigration assay, cancer cells were pre-incubated with various concentrations (3, 10, 30, 50, 100 μM) of tested inhibitors of PDIA3, C-3390, C-3399 for 30 min. Then, MDA-MB-231 cells (each 5×10^4 per well) were placed into upper chambers and tested PDI inhibitors at various concentrations (1, 10, 30, 50, 100 μM) were given. Lower chambers were filled with medium containing chemoattractant (20% FBS or 100 ng/mL SDF-1α). After 24 h of co-culture, hLMVEC monolayers and non-migrating cancer cells on the upper surface of the membrane were removed. […] The cell number was determined by measuring the fluorescence using plate reader. […]
# MDA-MB-231 = assay: MTT antiproliferative assay, 48 h, MDA-MB-231; conditions: 48-hour exposition, read-out: Cytotoxicity, IC50, μM MDA-MB-231
# HT-1080 = assay: MTT antiproliferative assay, 48 h, HT-1080; conditions: 48-hour exposition, read-out: Cytotoxicity, IC50, μM HT-1080
# Experimental: Anticancer activity of compounds of invention, PDI A3-inhibitors has been tested in vitro in classical antiproliferative assay in various cancer cells lines. Monolayer tumor cell lines MDA-MB-231 (human mammary breast adenocarcinoma), MCF-7 (human breast adenocarcinoma, estrogen-positive), HT-1080 (human fibrosarcoma) and Caco-2 (human colon adenocarcinoma) were cultured in standard medium DMEM (Dulbecco's modified Eagle's medium) (“Sigma”) supplemented with 10% foetal bovine serum (“Sigma”). About 2000-4000 cells per well (depending on line nature) were placed in 96-well plates and after 24 h compounds were added to the wells. Untreated cells were used as a control. The plates were incubated for 48 h, 37° C., 5% CO2. The number of surviving cells was determined using 3-(4,5-dimethylthiazol-2-yl)-2,5-diphenyltetrazolinium bromide (MTT). MTT-test: after incubating culture medium was removed and 200 μL fresh medium with 20 μL MTT (2 mg/mL in HBSS) was added in each well of the plate. After incubation (3 hr., 37° C., 5% CO2), the medium with MTT was removed and 200 μL DMSO were added at once to each sample. The samples were tested at 540 nm on Thermo Scientific Multiskan EX microplate photometer. The half-maximal inhibitory concentration (IC50) of each compound was calculated using Graph Pad Prism® 3.0.
# MCF-7 = assay: MTT antiproliferative assay, 48 h, MCF-7; conditions: 48-hour exposition, read-out: Cytotoxicity, IC50, μM MCF-7
smiles,measurement,setting,value
"COC(=O)C1CN1S(=O)(=O)c1ccc2c(C=O)c(N(C)C)ccc2c1 (centres unmarked) [Compound C-3390, Methyl 1-[[6-(dimethylamino)-5-formyl-2-naphthyl]sulfonyl]aziridine-2-calboxylate]",IC50 [μg/ml] HL-60 normal,HL-60,14.4 ± 0.7 µg/mL
same,Inhibition of MDA-MB-231 cell transmigration,[1],inhibited MDA-MB-231 cell transmigration
same,IC50,MDA-MB-231,18 ± 0.1 µM
same,IC50,HT-1080,7.9 ± 0.9 µM
same,IC50,MCF-7,20 ± 0.3 µM
